From US20140194388A1, “COMBINATION THERAPY OF HSP90 INHIBITORY COMPOUNDS WITH CHK INHIBITORS” (SYNTA PHARMACEUTICALS CORP., priority 2011, published 2014)

Legend:
B-raf = conditions: cited from earlier work
CDK1 = assay: Western blotting, CDK1 level after ganetespib (FIG. 1); format: cell-based, human
Experimental: (§1) The LNCaP, 22Rv1, DU145 and PC3 human prostate cancer cell lines were all purchased from the American Type Culture Collection (Manassas, Va., USA). Cells were maintained and cultured according to standard techniques at 37° C. in 5% (v/v) CO2 using culture medium recommended by the supplier. All primary antibodies were purchased from Cell Signaling Technology (Beverly, Mass., USA) with the exception of RAF1 (Santa Cruz Biotechnology, Santa Cruz, Calif., USA), p-EGFR (Tyr1068) (Invitrogen, Carlsbad, Calif., USA) and actin (GE Healthcare, UK). The Hsp90 inhibitors ganetespib and 17-AAG were synthesized at Synta Pharmaceuticals Corp.
(§2) Prostate cancer cell lines were lysed in RIPA buffer (Cell Signaling Technology, Beverly, Mass. USA). Lysates were clarified by centrifugation and equal amounts of protein resolved by SDS-PAGE before transfer to nitrocellulose membranes. Membranes were blocked with 5% skim milk in TBS with 0.5% Tween and immunoblotted with indicated antibodies. Antigen-antibody complexes were visualized using an Odyssey system (LI-COR, Lincoln, Nebr., USA).

CHK1 = assay: Western blotting, CHK1 level / CHK activity after ganetespib (FIG. 1); format: cell-based, human
Experimental: as §1, §2

SMILES	degradation of B-raf (B-raf; cancer cells treated with 17AAG)	sensitivity of B-raf mutants E586K and L597V to degradation (B-raf; cells treated with 17AAG)	rate of B-raf degradation, V600E mutant vs wild type (B-raf; melanoma cell line A375 (V600E) vs CHL cells (wild type B-raf))	rate of degradation of B-raf mutants V600D, G469A, G469E, G596R, G466V, G594V (B-raf; transvected into COS cells)	effect on stability of the master cell cycle regulator CDK1 (CDK1)	disruption of CHK activity by inhibition of Hsp90 activity (CHK1)	effect on stability of the DNA damage checkpoint CHK1 (CHK1; FIG. 1)
C=CCNC1=C2C[C@@H](C)C[C@H](OC)[C@H](O)[C@@H](C)/C=C(\C)[C@H](OC(N)=O)[C@@H](OC)/C=C\C=C(/C)C(=O)NC(=CC1=O)C2=O [Compound 17AAG]	stimulate the degradation of B-raf	not sensitive to degradation	degraded more rapidly than in CHL cells	degraded more rapidly than wild type B-raf			
CC(C)c1cc(-c2nnc(O)n2-c2ccc3c(ccn3C)c2)c(O)cc1O [ganetespib, 3-(2,4-DIHYDROXY- 5-ISOPROPYL- PHENYL)-4-(1- METHYL-INDOL- 5-YL)-5- HYDROXY- [1,2,4]TRIAZOLE]					destabilizes	highly effective in disrupting CHK activity	destabilizes
